# In patent US12653827B2, “Methods of treating indolent systemic mastocytosis” (Telios Pharma Inc., priority 2024, dated 2026):
# What was measured:
# [1] = cited from earlier work
# [2] = tested on: mast cells; assay: Phosphorylation and degranulation markers in antigen-stimulated mast cells grown with chronic SCF (FIG. 21); assay type: cell-based; conditions: 1 μM, antigen 15 minutes
# Procedure: Histamine release, CD63 expression, CD203c expression, pBTK (Y223) levels, pP38 (T180/Y182) levels, pPLCg1 (S1248) levels, pERK (T202/Y204) levels, and pS6 (S235/236) levels are shown. Mast cells were grown with continuous (chronic) exposure to SCF and then stimulated with antigen (Ag) for 15 minutes, leading to phosphorylation of multiple kinases, including pBTK, pPLCγ1, pP38, pERK, and pS6 ribosome. This stimulation increases degranulation markers, including CD63, CD203c, and histamine release.
# [3] = ISM patients, cited from earlier work
# [4] = tested on: basophils; assay: Comparison of BTK inhibitors by BAT (CD63 and CD203c); assay type: cell-based, human; conditions: concentration of 1 μM; 2 hours; blood from a healthy donor
# Procedure: The BAT assay using the Flow Cast Basophil Activation Kit (Buhlmann Diagnostics; Catalog #B-CCR-STCON) was then conducted following manufacturer instructions by (1) stimulating the blood with anti-FcεR stimulation control in stimulation buffer with IL-3 and staining cells for CCR3 and CD63 for 15 minutes at 37° C., (2) lysing red blood cells and fixing cells with Lysing Reagent at room temperature for 10 minutes, (3) washing cells with Wash Buffer, and (4) acquiring data on a flow cytometer. Activated basophils were defined as CCR3+, low side scatter and CD63+. Percent of activated basophils was calculated as number of activated basophils over the total number of basophils. A four-parameter logistic regression was applied to determine the EC50 and EC90.
# Blood samples were gently rocked at room temperature for 2 hours. […] Activated basophils were also defined as CCR3+, low side scatter and CD203c+.
structure (smiles),measurement,setting,value
Cc1nc(Nc2ncc(C(=O)Nc3c(C)cccc3Cl)s2)cc(N2CCN(CCO)CC2)n1 [dasatinib],subjects who discontinued treatment due to toxicity,"[1]; overall, AdvSM and ISM subjects",34%
same,"pleural effusion, grade 3 adverse event",[1]; patients overall,10%
Cn1cc(-c2cc3c(N4CCN(c5ncc([C@@](C)(N)c6ccc(F)cc6)cn5)CC4)ncnn3c2)cn1 [avapritinib],phosphorylation and degranulation (activation),[2],only partially inhibits activation
same,reduction of total symptom score compared to the placebo,"[3]; 25 mg QD, Week 24, ISM-SAF survey",5.7 points
same,adverse reactions leading to dose interruptions,[3]; 25 mg QD,5%
same,treated subjects who failed to achieve a mean symptom score reduction of 30%,[3]; first 6 months of treatment,approximately half
same,subjects who achieved a 50% symptom score reduction,[3]; within the first 6 months of treatment,about a third
"CC#CC(=O)N1CCC[C@H]1c1nc(-c2ccc(C(=O)Nc3ccccn3)cc2)c2c(N)nccn12 [acalabrutinib, (S)-4-(8-amino-3-(1-(but-2-ynoyl)pyrrolidin-2-yl)imidazo[1,5-a]pyrazin-1-yl)-N-(pyridin-2-yl)benzamide, reference compound]","effect on basophil activation (CD63+, CD203c+)",[4],no effect on basophil activation
